{
  "source": "paper PMC5444726",
  "about": "“A CD44-specific peptide, RP-1, exhibits capacities of assisting diagnosis and predicting prognosis of gastric cancer” (Oncotarget, 2017)",
  "key": {"[1]": {"tested_on": "CD44 on MKN-28-CD44-ox cells", "test": "Confocal immunofluorescence of peptide binding to CD44-overexpressing MKN-28 cells", "assay_type": "cell-based, human", "conditions": "100 μM Alexa Fluor 594 labeled peptide, 20 min, fixed cells, confocal microscopy", "experimental": "(§1) Plasmids containing cDNA of CD44 protein were synthesized by GENECHEM, Shanghai, China. Using Pfu polymerase and two oligonucleotides ([…] and […]), the CD44 cDNA was cloned into Xhol and ECOR1 sites of GV146 (GENECHEM, Shanghai, China) by recombinant PCR. Then, CD44-negative MNK-28 cells were transfected with the plasmid with Lipofectamine 2000 reagent (Invitrogen, California, USA), and then the efficiency of CD44 expression in MKN-28 cells was tested. Finally, two cell lines were generated as following: MKN-28-con with no CD44 expression and MKN-28-CD44-ox with CD44 overexpression labeled with enhanced green fluorescent protein (EGFP).\n(§2) For the preparation of confocal laser microscopy, the transfected MNK-28 cancer cells were washed with phosphate buffer saline (PBS) three times, then fixed with 4% paraformaldehyde at ambient temperature for 30 min, and blocked with 5% BSA (w/v) in PBS at 37°C for 1 h. The blocked cells were sequentially incubated with 100 μM RP-1 or WYP labeled with Alexa Fluor 594 for 20 min, and counterstained with 4,6-diamidino-2-phenylindole (DAPI). […] For the evaluation of the correlation of fluorescent intensities between CD44-EGFP and RP-1-Fluor 594, a semi-quantitative analysis was performed with ImageJ 1.48v software (National Institutes of Health, Maryland, USA) by randomly selecting and observing 10 fields of vision. […]"}, "[2]": {"tested_on": "SGC-7901 subcutaneous xenograft", "test": "In vivo fluorescence imaging and biodistribution in SGC-7901 xenograft mice", "quoted_text": "All animal procedures were approved by the Ethics Committee of Xi’an Jiaotong University and conducted in accordance with the Helsinki Declaration (1975). Athymic nude mice (male, 4–5 weeks old, with a body weight of 20–25 g) were obtained from the Animal Experiment Center of Xi’an Jiaotong University, Xi’an, China. The SGC-7901 tumor xenografts were generated by subcutaneous injection of 5–8 × 10^6 SGC-7901 cells suspended in 200 μL culture medium into the left axilla of mice. The cells were allowed to grow for 2 weeks until tumor volume reached an estimate of 1 cm^3.\nIn vivo fluorescence imaging was performed with the IVIS Spectrum Imaging System and analyzed with the IVIS Living Imaging 4.2 software (Xenogen, California, USA). Identical imaging settings (exposure time: 40s; binning: 16; lens aperture [f/stop]: 4; field of view: 13.3) were used for capturing images. Fluorescent intensity was normalized and presented as (p/sec/cm^2/sr)/(μW/cm^2). The mice from the experimental group (n = 10) and control group (n = 10) were intravenously injected with 1 mg/kg FITC-RP-1 and FITC-WYP, respectively. Mice anesthetized with isoflurane were subjected to optical imaging at each hour since 1h after injection. Finally, solid tumors, tissues, and organs were all harvested and rinsed with PBS for further analysis of the distribution of FITC-RP-1."}, "SGC-7901 tumor tissue": {"tested_on": "SGC-7901 tumor tissue", "test": "Fluorescence microscopy of frozen xenograft sections after injection", "assay_type": "in vivo, athymic nude mice", "conditions": "3 h after i.v. injection of peptide", "experimental": "Once fluorescence signal reached its peak at the site of tumor, subcutaneous tumor tissues were harvested for further experiment. After shock-frozen with liquid nitrogen, tumor tissues were cut into 5 μm sections and fixed in 4% paraformaldehyde at ambient temperature for 30 min. The coverslips were mounted with glycerol–gelatin containing anti-fading buffer (Bioworld, Minnesota, USA). Finally, the fluorescence images of frozen sections were captured with a fluorescent microscope (Nikon-Eclipse, Tokyo, Japan)"}, "[3]": {"tested_on": "MKN-28 cells not expressing CD44 transgenes", "test": "Confocal immunofluorescence of peptide binding to non-CD44 MKN-28 cells", "assay_type": "cell-based, human", "conditions": "100 μM Alexa Fluor 594 labeled peptide, 20 min, co-culture with CD44-overexpressing cells, confocal microscopy", "experimental": "as §1, §2"}, "CD44 protein": {"tested_on": "CD44 protein", "conditions": "peptide screened from 12-mer phage peptide library; ref [25]; cited from earlier work", "description": "The purpose of the current study was to validate the specificity and affinity of RP-1 in both in vitro and in vivo experiment ..."}, "[4]": {"conditions": "excised tissue, 3 h after i.v. FITC-RP-1, 1 μg/g"}},
  "data": [
    {"sequence": "WHPWSYLWTQQA [RP-1, CD44-specific peptide … screened from a 12-mer phage peptide library]", "values": [
      {"measurement": "binding of peptide to CD44 on the cell membrane", "setting": "[1]", "result": "apparent binding of RP-1 peptides to CD44 on the cell membrane"},
      {"measurement": "organs with accumulation (fluorescence of excised tissues)", "setting": "[2]; 3 h after i.v. injection of FITC-labeled peptide, 1 μg/g", "result": "accumulation of RP-1 in tumor tissue and liver"},
      {"measurement": "fluorescence signal remaining (elimination)", "setting": "[2]; 6 h after intravenous injection", "result": "almost undetectable"},
      {"measurement": "fluorescent intensity, kidney", "setting": "[2]; [4]", "result": "2.00 × 10^8 (p/sec/cm^2/sr) /(μW/cm^2)"},
      {"measurement": "fluorescent intensity, liver", "setting": "[2]; [4]", "result": "5.58 × 10^8 (p/sec/cm^2/sr) /(μW/cm^2)"},
      {"measurement": "fluorescent intensity, stomach", "setting": "[2]; [4]", "result": "2.28 × 10^8 (p/sec/cm^2/sr) /(μW/cm^2)"},
      {"measurement": "fluorescent intensity, tumor", "setting": "[2]; excised tissue, 3 h after i.v. FITC-RP-1, 1 μg/g, tumor vs other organs P < 0.001", "result": "1.14 × 10^9 (p/sec/cm^2/sr) /(μW/cm^2)"},
      {"measurement": "fluorescence on tumor cells in frozen sections", "setting": "SGC-7901 tumor tissue", "result": "fluorescence signals were observed both on cell membrane and in cytoplasm"},
      {"measurement": "binding of peptide to cells without CD44", "setting": "[3]", "result": "bound considerably lower amounts of RP-1 peptide"},
      {"measurement": "binding to CD44 protein", "setting": "CD44 protein", "result": "can specifically bind to CD44 protein"}
    ]}
  ]
}
